Experimental data as given in patent US20090041751A1, “Sepsis Prevention Through Adenosine Receptor Modulation” (priority 2005, published 2009).
“Also recorded” adds a separate entry of the source.

Assays:
[1] = tested on: IL-10, IL-6, MIP-2, IL-12; experiment: Cytokine levels (ELISA) in plasma and peritoneal lavage fluid after CLP; type: in vivo, mouse
Description: The effect of pharmacological inactivation of A2A receptors in mice subjected to CLP was evaluated using CD-1 mice in a similar fashion to that described for the A2A receptor KO or WT mice. In this set of experiments, the mice were injected immediately before or 2 hours after the operation and every 12 hours thereafter with 4-(2-[7-amino-2-(2-furyl[1,2,4]-triazolo[2,3-a[1,3,5]triazin-5-yl-aminoethyl)phenol (“ZM241385”) (15 mg/kg, s.c.) or its vehicle (DMSO). Blood samples were obtained aseptically by cardiac puncture using heparinized syringes after opening the chest and placed on ice into heparinized Eppendorf tubes until further processing for hematological and bacteriological analysis. Aliquots of whole blood were analyzed for hematology by flow cytometry (CELL-DYN 3200 System, Abbott Laboratories) in a centralized facility. After serial dilutions for bacteriological analysis were made (see below), the blood was centrifuged at 2000×g for ten minutes and the recovered plasma stored at −70° C. until further use. For peritoneal lavage, the abdominal skin was cleansed with 70% ethanol and the abdominal wall exposed by opening the skin. Four milliliters of sterile physiological saline was then installed into the peritoneal cavity via an 18-gauge needle. The abdomen was massaged gently for 1 minute while keeping the tip of the needle in the peritoneum, after which procedure peritoneal fluid was recovered through the needle. Recovered peritoneal lavage fluid was placed on ice until processed for bacteriological examination. After serially diluting the peritoneal lavage fluid to determine CFU numbers (see below), the peritoneal lavage fluid was centrifuged at 5000×g for ten minutes and the supernatant stored at −70° C. until further analysis. Samples from spleen, thymus, lung, kidneys, and liver were excised and either immediately frozen in liquid nitrogen or placed in 10% paraformaldehyde for subsequent histological analysis. Snap-frozen tissue samples were transferred to a −70° C. refrigerator until analyzed for gene expression and apoptotic markers. Concentrations of IL-10, IL-6, IL-12 p70, TNF-α and MIP-2, in plasma or peritoneal lavage fluid were determined using commercially available ELISA kits (R&D Systems) and according to the manufacturer's instructions. The lower detection limit for all these cytokines was 10 pg/ml. Plasma concentrations of AST, ALT, and BUN were analyzed using standard laboratory procedures. Survival curves were analyzed using the two-tailed Fisher's exact test. Two-tailed t testing was used to compare cytokine concentrations, CFUs, and other laboratory parameters. Statistical significance was assigned to p values smaller than 0.05.

[2] = tested on: mice subjected to CLP; experiment: Survival after cecal ligation and puncture (CLP)-induced sepsis; type: in vivo, mouse; conditions: CD-1 mice
Text: For pharmacological studies with the selective A2A receptor antagonist 4-(2-[7-amino-2-(2-furyl)[1,2,4]triazolo[2,3-a][1,3,5]triazin-5-ylamino]ethyl)phenol(4-(2-[7-amino-2-(2-furyl[1,2,4]-triazolo[2,3-a[1,3,5]triazin-5-yl-aminoethyl)phenol (“ZM241385”); Tocris Cookson Inc.), male CD-1 mice were used that were purchased from Charles River Laboratories.
Polymicrobial sepsis was induced by subjecting mice to CLP, as we have described previously, with some modifications. Six-to-eight-week-old male A2a receptor KO or WT mice were anesthetized with Nembutal (80 mg/kg), given i.p. Under aseptic conditions, a 2-cm midline laparotomy was performed to allow exposure of the cecum with adjoining intestine. Approximately two-thirds of the cecum was tightly ligated with a 3.0 silk suture, and the ligated part of the cecum perforated twice (through and through) with a 20-gauge needle (Beckton Dickinson). The cecum was then gently squeezed to extrude a small amount of feces from the perforation sites. The cecum was then returned to the peritoneal cavity and the laparotomy closed in two layers with 4.0 silk sutures. Sham-operated animals underwent the same procedure without ligation or puncture of the cecum. The mice were resuscitated with 1 ml of physiological saline injected s.c., and returned to their cages with free access to food and water. One group of mice was monitored daily and survival recorded for 10 days. Another group of mice was re-anesthetized with Nembutal (80 mg/kg; i.p.) 16 or 48 hours after the operation, and blood, peritoneal lavage fluid, and various organs were harvested as described below.
The effect of pharmacological inactivation of A2A receptors in mice subjected to CLP was evaluated using CD-1 mice in a similar fashion to that described for the A2A receptor KO or WT mice. […]
Survival curves were analyzed using the two-tailed Fisher's exact test. […]

[3] = 15 mg/kg s.c. twice daily, 16 hours after CLP, FIG. 6C
[4] = 15 mg/kg s.c. twice daily, 16 hours after CLP, FIG. 6D
[5] = 15 mg/kg s.c. twice daily, 16 hours after CLP, FIG. 6E
[6] = mouse CLP sepsis model, FIG. 10, matrix not stated

For `Nc1nc(NCCc2ccc(O)cc2)nc2nc(-c3ccco3)nn12` [ZM241385], the “IL-10 level in peritoneal lavage fluid vs vehicle-treated mice” value [1, 3] was “decreased”, the “IL-10 level in plasma vs vehicle-treated mice” value [1, 3] was “decreased” and the “IL-6 concentration in plasma vs vehicle-treated mice” value [1, 4] was “comparable”. The “IL-6 level in peritoneal fluid vs vehicle-treated mice” value [1, 4] was “lower; also recorded: attenuated”, the “MIP-2 level in peritoneal lavage fluid vs vehicle-treated mice” value [1, 5] was “decreased” and the “MIP-2 level in plasma vs vehicle-treated mice” value [1, 5] was “decreased”. For the same compound, the “IL-10 levels vs vehicle treated mice” value [1, 6] was “Decreased levels”, the “IL-12 concentrations vs vehicle treated mice” value [1, 6] was “comparable” and the “MIP-2 levels vs vehicle treated mice” value [1, 6] was “Decreased levels”. The “survival after CLP vs vehicle-treated mice, delayed administration” value ([2]; 15 mg/kg s.c. twice daily starting 2 hours after resuscitation, survival monitored 5 days, FIG. 6B, 15 mg/kg) was “still protective; also recorded: protects mice from death”, the “survival after CLP vs vehicle-treated mice” value ([2]; 15 mg/kg s.c. twice daily starting at time of resuscitation (time 0), survival monitored 5 days, FIG. 6A, 15 mg/kg) was “significantly improved survival; also recorded: protects mice from death” and the “survival after CLP” value ([2]; survival recorded for 2 days, FIG. 9) was “improved survival”.
